# Assay results published in US10253002B2, “Compounds and methods of treating infections” (Neoculi Pty Ltd., priority 2013, dated 2019).
# “And” between values parts separate entries of the source, which are not always exact repeats. Identical values can stand only once. Marks after values point to notes of the source that are not given here.
# Assays:
# MRSA = test: Broth microdilution MIC, Example 7 (NCL812 and analogues); assay type: cell-based, Staphylococcus aureus; details: for activity against MRSA among analogues: MIC testing, two MRSA strains; for MRSA: bioassay ranking
# Method in brief: (§1)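 CLSI broth microdilution against two MRSA and two VRE strains, tested in duplicate with a third run if results differed by more than one two-fold dilution.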
# Pseudomonas aeruginosa = test: as above; assay type: cell-based; details: 24 hours
# VRE = test: as above; assay type: cell-based, Enterococcus spp.; details: for activity against VRE among analogues: MIC testing, two VRE strains; for VRE: bioassay ranking
# Method in brief: as §1
# [1] = Bioassay ranking of the analogues tested; details: M + R (MRSA and VRE combined)
# Escherichia coli = test: Broth microdilution MIC, Example 7 (NCL812 and analogues); assay type: cell-based; details: 24 hours
# [2] = test system: Staphylococcus aureus T3-129 / Staphylococcus spp. MK1; test: Synergy studies, checkerboard method (FIC index); assay type: cell-based; details: Staphylococcus spp. Strain MK1; for FICI: FIC index of antibiotic with NCL812; for Result (interaction with NCL812): antibiotic with NCL812
# [3] = test system: S. aureus isolates (HA-MRSA, CA-MRSA, methicillin-susceptible staphylococci); test: Kirby-Bauer disc diffusion resistotyping, Example 4; assay type: cell-based, Staphylococcus aureus
# Method in brief: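 CLSI Kirby-Bauer disc diffusion on Mueller-Hinton agar. Overnight SBA cultures (37 °C) were suspended in saline and adjusted to 0.5 McFarland before spreading. Antibiotic discs were read after 24 h at 37 °C.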
# [4] = isolate MRSA 1, 24 hours, 1st and 2nd replicate rows
# [5] = isolate MRSA 2, 24 hours, 1st and 2nd replicate rows
# [6] = isolate VRE 1, 24 hours, 1st and 2nd replicate rows
# [7] = isolate VRE 2, 24 hours, 1st and 2nd replicate rows
compound,measurement,setting,value
Cc1ccc(/C=N/NC(=N)N/N=C/c2ccc(C)cc2)cc1.Cl [NCL038],activity against MRSA among analogues,MRSA,greatest activity
same,MRSA,MRSA,8 µg/mL
same,"MIC (μg/ml) at 24 hours, MRSA 1",MRSA; [4],8** μg/ml
same,"MIC (μg/ml) at 24 hours, MRSA 2",MRSA; [5],8** μg/ml
same,"MIC (μg/ml) at 24 hours, P. aeruginosa",Pseudomonas aeruginosa; 1st and 2nd replicate rows,>128 µg/mL
same,activity against VRE among analogues,VRE,greatest activity
same,VRE,VRE,10 µg/mL
same,"MIC (μg/ml) at 24 hours, VRE 1",VRE; [6],8** μg/ml and 16** μg/ml
same,"MIC (μg/ml) at 24 hours, VRE 2",VRE; [7],8** μg/ml
same,M + R,[1],9 µg/mL
same,"MIC (μg/ml) at 24 hours, E. coli",Escherichia coli; 1st and 2nd replicate rows,>128 µg/mL
CC1(C)S[C@@H]2[C@H](NC(=O)Cc3ccccc3)C(=O)N2[C@H]1C(=O)O [Penicillin G],FICI,[2],1 and 0.625
same,Antibiotic MIC Alone,[2],0.125 µg/mL and 0.25 µg/mL
same,Antibiotic MIC With NCL812,[2]; antibiotic in combination with NCL812,0.062 µg/mL and 0.031 µg/mL
same,Result (interaction with NCL812),[2],NE (No effect (NE) was defined as 0.5<FICI<4)
Gentamicin,isolates resistant (Kirby-Bauer disc diffusion),[3]; CA-MRSA (n = 10),0.00%
same,isolates resistant (Kirby-Bauer disc diffusion),[3]; HA-MRSA (n = 10),20.00%
same,isolates resistant (Kirby-Bauer disc diffusion),[3]; Methicillin-susceptible staphylococci (n = 10),0.00%
same,Total isolates resistant (Kirby-Bauer disc diffusion),[3]; all isolates (n = 30),20.00%
same,FICI,[2],0.625 and 0.75 and 0.515
same,Antibiotic MIC Alone,[2],1 µg/mL and 0.5 µg/mL
same,Result (interaction with NCL812),[2],NE (No effect (NE) was defined as 0.5<FICI<4)
Cl.N=C(NN=Cc1ccc(Cl)cc1)NN=Cc1ccccc1F [NCL088],activity against MRSA among analogues,MRSA,greatest activity
same,"MIC (μg/ml) at 24 hours, MRSA 1","MRSA; MRSA 1, 24 hours, duplicate lines per compound",16 µg/mL and 8 µg/mL
same,"MIC (μg/ml) at 24 hours, MRSA 2","MRSA; MRSA 2, 24 hours, duplicate lines per compound",8 µg/mL
same,MRSA,MRSA,10 µg/mL
same,"MIC (μg/ml) at 24 hours, P. aeruginosa","Pseudomonas aeruginosa; P. aeruginosa, duplicate lines per compound",>128 µg/mL
same,activity against VRE among analogues,VRE,greatest activity
same,"MIC (μg/ml) at 24 hours, VRE 1","VRE; VRE 1, 24 hours, duplicate lines per compound",4 µg/mL
same,"MIC (μg/ml) at 24 hours, VRE 2","VRE; VRE 2, 24 hours, duplicate lines per compound",4 µg/mL
same,VRE,VRE,4 µg/mL
same,M + R,[1],7 µg/mL
same,"MIC (μg/ml) at 24 hours, E. coli","Escherichia coli; E. coli, duplicate lines per compound",>128 µg/mL
Cl.Cl.Nc1nc(N/N=C/C2CCCCC2)cc(N/N=C/C2CCCCC2)n1 [NCL203],activity against MRSA among analogues,MRSA,greatest activity
same,"MIC (μg/ml) at 24 hours, MRSA 1","MRSA; MRSA 1, 24 hours",32 µg/mL
same,"MIC (μg/ml) at 24 hours, MRSA 2","MRSA; MRSA 2, 24 hours",64 µg/mL
same,"MIC (μg/ml) at 24 hours, P. aeruginosa",Pseudomonas aeruginosa; P. aeruginosa,>128 µg/mL
same,activity against VRE among analogues,VRE,greatest activity
same,"MIC (μg/ml) at 24 hours, VRE 1","VRE; VRE 1, 24 hours",32 µg/mL and 64 µg/mL
same,"MIC (μg/ml) at 24 hours, VRE 2","VRE; VRE 2, 24 hours",32 µg/mL
same,M + R,[1],44 µg/mL
same,"MIC (μg/ml) at 24 hours, E. coli",Escherichia coli; E. coli,>128 µg/mL
Cl.N=C(N/N=C/c1ccc(Cl)cc1F)N/N=C/c1ccc(Cl)cc1F [NCL216],activity against MRSA among analogues,MRSA,greatest activity
same,"MIC (μg/ml) at 24 hours, MRSA 1","MRSA; MRSA 1, 24 hours",2 µg/mL and 4 µg/mL
same,"MIC (μg/ml) at 24 hours, MRSA 2","MRSA; MRSA 2, 24 hours",2 µg/mL
same,MRSA,MRSA,2.5 µg/mL
same,"MIC (μg/ml) at 24 hours, P. aeruginosa",Pseudomonas aeruginosa; P. aeruginosa,>128 µg/mL
same,activity against VRE among analogues,VRE,greatest activity
same,"MIC (μg/ml) at 24 hours, VRE 1","VRE; VRE 1, 24 hours",2 µg/mL
same,"MIC (μg/ml) at 24 hours, VRE 2","VRE; VRE 2, 24 hours",4 µg/mL
same,VRE,VRE,3 µg/mL
same,M + R,[1],2.75 µg/mL
same,"MIC (μg/ml) at 24 hours, E. coli",Escherichia coli; E. coli,>128 µg/mL
Cl.N=C(N/N=C/c1cccc(Cl)c1)N/N=C/c1cccc(Cl)c1 [NCL054],activity against MRSA among analogues,MRSA,greatest activity
same,MRSA,MRSA,3 µg/mL
same,"MIC (μg/ml) at 24 hours, MRSA 1",MRSA; [4],4 µg/mL and 2 µg/mL
same,"MIC (μg/ml) at 24 hours, MRSA 2",MRSA; [5],2 µg/mL and 4 µg/mL
same,"MIC (μg/ml) at 24 hours, P. aeruginosa",Pseudomonas aeruginosa; 1st and 2nd replicate rows,>128 µg/mL
same,activity against VRE among analogues,VRE,greatest activity
same,VRE,VRE,4 µg/mL
same,"MIC (μg/ml) at 24 hours, VRE 1",VRE; [6],4 µg/mL
same,"MIC (μg/ml) at 24 hours, VRE 2",VRE; [7],4 µg/mL
same,M + R,[1],3.5 µg/mL
same,"MIC (μg/ml) at 24 hours, E. coli",Escherichia coli; 1st and 2nd replicate rows,>128 µg/mL
